Reference: PMC12904088, “Development of Dimethylsulfonium Probes for Broad Profiling of Methyllysine Reader Proteins” (Advanced Science, 2025)
Square brackets hold non-standard residues; d marks the D form. Ends that are not written are not given here. Lys(Me3) = C[N+](C)(C)CCCC[C@H](N)C(=O)O

How the values were obtained:
[1] = tested on: PRC2; conditions: cited from earlier work
From the text: (§1) Reader proteins, which specifically recognize methylation modifications at specific sites, are crucial for the biological functions of lysine methylation (Figure 1A).^[ [11], [12], [13], [14] ^] For example, BPTF is a reader of H3K4me3 that is in the NURF complex for RNA polymerase II activities.^[ [15] ^] CBX1 is a reader of H3K9me3 that promotes liquid‐liquid phase separation for the formation of heterochromatin. As a result, the local genes in chromatin are condensed and not accessible to transcription.^[ [16], [17], [18] ^] In addition, readers also play important roles in tumorigenesis. F ...

[2] = tested on: tumor growth; conditions: mouse models; cited from earlier work
From the text: as §1

[3] = tested on: HeLa cell nuclei proteins; experiment: Proteomic experiment for inhibitor evaluation: probe 12 with MS31 competition; format: cell-based, Homo sapiens
Description: HeLa cells (1.8 × 10^7) were harvested, washed with pre‐cooled phosphate buffer saline (PBS), and lysed in hypotonic buffer (10 mM Tris, 15 mM NaCl, 1.5 mM MgCl2, 0.2 mM PMSF, pH 7.5) on ice with regular inversion for 10–15 min. After centrifugation at 200 g for 5 min at 4°C, the pellet was resuspended in hypotonic buffer and homogenized with three strokes of a loose pestle Dounce homogenizer. The intact nuclei were washed with a hypotonic buffer and collected by centrifugation. Then, the nuclei were resuspended in crosslink buffer (100 mM HEPES, 150 mM KCl, 1.5 mM MgCl2, 0.2 mM PMSF, pH 7.5) and divided into two groups (Group A and Group B), each of which contained three parallel samples. The general probe was added to Group A. The same amount of the general probe and extra competing peptides was added to Group B. These samples were transferred to a 24‐well plate, incubated on ice for 10 min, and irradiated under 313 nm UV for 20 min on ice. Next, the nuclei were washed with crosslinking buffer three times. […]
Label‐free quantification was performed with Proteome Discoverer 2.5, which was used for database searches against the Homo sapiens (Human) proteome database retrieved from UniProtKB (accession UP000005640). […]

[4] = tested on: SPIN2B; experiment: Western blot: inhibition of crosslinking of probe 12 by MS31; format: biochemical, human; conditions: 2.5 mM probe 12, 10 µM SPIN2B, 200 µM MS31, 0.5% DMSO, UV 30 min, streptavidin-HRP blot; Figure 5D
Description: BPTF, CBX1, and SPIN1 were expressed and purified as previously reported.^[ [54], [59] ^] Full‐length SPIN2B (residues 1–258) from human was cloned into the pET‐28a vector with an N‐terminal 6×His‐SUMO‐tag. It was over‐expressed in Rosetta (DE3) Escherichia coli cells by induction of 0.25 mM isopropyl β‐D‐thiogalactoside (IPTG) at 16 °C overnight when OD600 reached 0.6–0.8 in the LB medium. The harvested cells were suspended in lysis buffer (20 mM Tris, 150 mM NaCl, 0.2 mM PMSF, pH 7.5) and lysed by sonication; then, the cell lysate was centrifuged to remove the insoluble cell debris. The clarified supernatant was loaded on nickel resin equilibrated in lysis buffer. Afterward, the protein‐bound resin was washed sequentially with lysis buffer, high salt buffer (20 mM Tris, 500 mM NaCl, pH 7.5), and 20 mM imidazole buffer (20 mM Tris, 150 mM NaCl, 20 mM imidazole, pH 7.5). The target proteins were eluted by 200 mM imidazole buffer (20 mM Tris, 150 mM NaCl, 200 mM imidazole, pH 7.5), followed by the solution exchanged to storage buffer (20 mM Tris, 150 mM NaCl, pH 7.5). The product was concentrated, snap‐frozen, and stored at −80°C. […]
For SPIN1 and SPIN2B found in the volcano plot, 5 sets of samples were designed, respectively. […] Finally, the membranes were washed with 1×TBST buffer three times, and the protein bands were detected by enhanced chemiluminescence reagent.

[5] = molecular target: SPIN1; conditions: cited from earlier work
From the text: (§2) To verify this approach, we selected MS31, a potent and selective fragment‐like inhibitor that primarily targets the H3K4me3 reader SPIN1 by binding to its Tudor2 domain.^[ [64], [65], [66] ^] […] We used peptide 12, which replaced desthiobiotin of peptide 5 with biotin to enhance binding affinity to streptavidin beads, for a prot ...

[6] = tested on: SPIN2B; conditions: cited from earlier work
From the text: as §2

[7] = tested on: SPIN4; conditions: cited from earlier work
From the text: as §2

[8] = tested on: broad panel of other epigenetic readers and writers; conditions: cited from earlier work
From the text: as §2

[9] = tested on: reader proteins (BPTF, CBX1); experiment: In vitro crosslinking validation of general competition peptide; format: biochemical; conditions: 2.5 mM general probe, 7.5 mM peptide 13, 10 µM reader, pH 7.5, UV 30 min; Figure 6B
Description: Probes were added to the crosslinking buffer (100 mM HEPES, pH 7.5), followed by the addition of reader proteins. The mixture was transferred to 96‐well plates and incubated on ice for 10 min. After UV irradiation on ice at an energy of 720 mJ cm^−2, the samples were analyzed by UPLC‐Q‐TOF‐MS. The analytical yield was calculated based on the mass peak areas as previously reported.^[ [55] ^] The yield is calculated as the peak area of the desired product divided by the sum of the peak areas of the crosslinking products and the starting material, multiplied by 100%. For crosslinking readers with general probes: The mixture of 5 mM general probes and 10 µM reader proteins (BPTF, CBX1, CDYL2) was crosslinked by the General procedure for crosslinking for 30 min. For competition assays, the mixture of 2.5 mM general probes, 100 µM H3K4me3 (1‐15) or H3K9me3 (1‐15) peptide or 7.5 mM […]me3GG, 10 µM reader proteins (BPTF, CBX1) was crosslinked by the General procedure for crosslinking for 20 min (H3K4me3 or H3K9me3 for competition) or 30 min ([…]me3GG for competition). For Kinetics of reader crosslinking: The mixture of 0.625/1.25/2.5/5/10 mM general probe and 10 µM reader proteins was crosslinked by the General procedure for crosslinking for 20 min. […]

Molecule: CS(=O)(=O)c1ccc(-c2cnc(NCc3ccco3)n3cnnc23)cc1 [EED226]
- PRC2 activity inhibition (in words) [1]: effectively inhibits PRC2 activity
- Tumor growth suppression (in words) [2]: suppresses tumor growth in mouse models

Molecule: COc1c(CN)cc(CN)cc1OCCCN1Cc2ccccc2C1 [MS31]
- Proteins significantly enriched (MS31 competition) ([3]; 2.5 mM probe 12 vs + 200 µM MS31, 313 nm UV 20 min, Log2(Fold Change) ≥0.5, p ≤ 0.05, n = 3): 21 proteins
- Known MS31 targets identified among enriched proteins ([3]; 2.5 mM probe 12 vs + 200 µM MS31, Log2(Fold Change) ≥0.5, p ≤ 0.05, n = 3): the expected primary target SPIN1 was identified, along with two other SPIN family members, SPIN4 and SPIN2B
- Inhibition of crosslinking between SPIN2B and probe 12 [4]: can be inhibited by MS31
- Kd [5]: 91 nM
- Binding affinity (in words) [6]: moderate binding affinity
- Binding affinity (in words) [7]: moderate binding affinity
- Selectivity (in words) [8]: high selectivity over a broad panel of other epigenetic readers and writers

Molecule: RKGGGGGG[Lys(Me3)]GG [peptide 13]
- Competition of general probe crosslinking by peptide 13 [9]: three equivalents of the peptide were sufficient to achieve complete competition
